Test results published in US20230339949A1, “HETEROCYCLIC SUBSTITUTED FUSED y-CARBOLINE DERIVATIVE, PREPARATION METHOD THEREFOR, INTERMEDIATE THEREOF AND USE THEREOF” (SHUJING BIOPHARMA CO., LTD, priority 2020, published 2023).
Read-outs that look alike come from different tables or passages of the source.

Assays:
D2S receptor = biological target: T1, D2S receptor (Homo sapiens, UniProt P14416); assay: Functional activity test on D2S receptor, cAMP detection (Gi antagonist test); format: cell-based; settings: cultured HEK293/D2S cells, forskolin + dopamine EC90
T1 construct: expressed in transfected cells
Excerpt: (§1) The antagonistic effects of the compounds of the present disclosure on D2L and D2S receptors were detected by cyclic adenosine monophosphate (cAMP) detection method at cell-level.
(§2) • (1) Test compound: compounds of the embodiment of the present disclosure, self-made. • (2) Control compound: dopamine hydrochloride (Sigma, H8502), (+)-Butaclamol hydrochloride (Sigma, D033). • (3) Stable cell line:
(§3) • (1) Preparation of test compounds: the compounds of the embodiments of the present disclosure were respectively dissolved in DMSO to prepare 10 mM mother liquor, and the mother liquor was stored in the nitrogen cabinet for later use. • (2) Preparation of control compound: the control compound was dissolved in DMSO to prepare 10 mM mother liquor, and the mother liquor was repackaged and stored in the refrigerator at −80° C. for later use. • (3) IBMX was dissolved in DMSO to prepare 0.5 M stock solution and the stock solution was cryopreserved at −80° C. • (4) Forskolin was dissolved in DMSO to prepare 1 mM stock solution and the stock solution was cryopreserved at −80° C. for later use. • (5) Experimental buffer: 5× stimulation buffer was diluted to 1× with ddH2O and IBMX with a final concentration of 0.5 mM was added thereto, and the solution was mixed well for later use.
(§4) • (1) Preparation of compounds: the test compounds and positive control compound (+)-Butaclamol hydrochloride were diluted gradient using Bravo in the compound plate (Greiner-781280), and the initial concentration of working solution was 20 μM, and the working solution was diluted at 4-fold for 10 concentrations and centrifuged at 1000 rpm for 1 minute for later use. • (2) Cryopreserved D2L cells: cells was taken out from the liquid nitrogen tank and thaw in a water bath at 37° C., and the cell suspension was transferred to a centrifuge tube containing HBSS buffer, and centrifuged at 750 rpm for 5 minutes.
(§5) Cultured D2S cells: after absorbing the culture medium, the cells were washed with 3 mL PBS, sucked out, digested with 0.05% Trypsin for 3 min, terminated with equal volume of culture medium, transferred to centrifuge tube, and centrifuged at 750 rpm for 5 minutes. After absorbing the liquid, the centrifuge tube was added with a buffer solution containing HBSS and re-suspend, and centrifuged at 750 rpm for 5 minutes. • (3) The supernatant was discarded, and the precipitate was re-suspended with proper amount of experimental buffer, and 20 μL was taken for cell counting. • (4) Appropriate amount of cell suspension was removed, and the cell suspension was diluted to 2×10^5 cells/mL with experimental buffer, and the cell plate (PerkinElmer-6008280) was added with 5 μL/well cell suspension, and centrifuged at 1000 rpm for 1 minute. • (5) 5 μL/well was transferred to the cell plate with Bravo, and the cell plate was centrifuged at 1000 rpm for 1 minute, then the cell plate was closed and incubated at room temperature for 15 minutes. • (6) Forskolin was transferred to the cell plate with Tecan-D300e, and Dopamine hydrochloride with a final concentration of EC90 was transferred to the cell plate. • (7) The cell plate was centrifuged at 1000 rpm for 1 minute, then sealed and incubated at room temperature for 45 minutes. • (8) Standard curve: cAMP with the stock solution concentration of 2848 nM was diluted 4-fold continuously at 8 points according to the initial maximum concentration of 712 nM, and 10 μL/well was taken out to add to the cell plate. • (9) 10 μL/well of detection solution containing cAMP-d2 and Anti-cAMP-Cryptate (diluted with pyrolysis buffer at 1:20) was added to the cell plate, and the cell plate was centrifuged at 1000 rpm for 1 minute, and incubated at room temperature without light for 1 hour. • (10) Detection: the cell plate was centrifuged at 1000 rpm for 1 minute, and the plate was read with Envision (excitation light 340 nm, emission light 620 nm and 665 nm). […]

D2L receptor = biological target: T2, D2L receptor (Homo sapiens, UniProt P14416); assay: Functional activity test on D2L receptor, cAMP detection (Gi antagonist test); format: cell-based; settings: cryopreserved CHO-K1/D2L/Gα15 cells, forskolin + dopamine EC90
T2 construct: expressed in transfected cells
Excerpt: as §1, §2, §3, §4, §5

5-HT2A receptor = biological target: T3, 5-HT2A receptor (Homo sapiens, UniProt P28223); assay: Functional detection experiment of 5-HT2A receptor (cultured cells), calcium influx assay; format: cell-based
T3 construct: expressed in transfected cells
Excerpt: The antagonistic effect of the compound of the present disclosure on the 5-HT2A receptor was detected by a calcium influx assay at the cellular level.
• (1) Test compounds: compounds of the embodiments of the present disclosure, self-made. • (2) Control compound: serotonin hydrochloride 5-hydroxytryptamine (Sigma, H9523), Ketanserin (Targetmol, T1066). • (3) Stable cell line:
• (1) Preparation of test compounds: the compounds of the embodiments of the present disclosure were respectively dissolved in DMSO to prepare 10 mM mother liquor, and the mother liquor was stored in the nitrogen cabinet for later use. • (2) Preparation of control compound: the control compound was dissolved in DMSO to prepare 10 mM mother liquor, and the mother liquor was repackaged and stored in the refrigerator at -80° C. for later use. • (3) Preparation of 250 mM probenecid solution: 1 mL experimental buffer was added into a tube containing 77 mg powder, and the powder was dissolved by vortex oscillation. • (4) Preparation of 2× fluorescent probe solution: a bottle of fluorescent probe dry powder was taken out to balance to room temperature, and 10 mL of experimental buffer solution and 200 μL of 250 mM probenecid solution were added thereto, and the mixture was scrolled and let stand for 5 minutes to ensure complete dissolution. • (5) Experimental buffer HBSS: HBSS and HEPES were mixed evenly in a ratio of 50:1, stored in a refrigerator at 4° C., and heated at 37° C. when used.
• (1) Cells were taken out from the liquid nitrogen tank and melted in a water bath at 37° C. The surface of the cryopreservation tube was wiped with 75% alcohol and put in the biosafety cabinet. • (2) The cell suspension was transferred to a 15 mL centrifuge tube with 4 mL preheated plating medium, and the tube was centrifuged at 1000 rpm for 5 minutes. • (3) The supernatant was discarded, and 10 mL of plating medium was added and blown gently, and the mixture was transferred to a culture dish for growth. After the cells had adhered to the wall for 24 hours, they were replaced with growth medium for continuous culture.
• (1) The logarithmic growth cells was taken and the cells grew to about 85%-90%. The cells were performed the following operations: cell cleaning, digestion, termination, then transferred to a 15 mL centrifuge tube, and the tube was centrifuged at room temperature at 1000 rpm for 5 minutes. • (2) The supernatant was discarded, and a certain plating medium was added and blown gently. 20 μL of cell suspension was taken out and counted. • (3) Cells were diluted to 1×10^6 cells/mL and 20 μL of cell suspension was added to each well of the cell plate (Greiner-781946), so that the density of each well is 2×10^4 cells/well. • (4) The cell plate was incubated in an incubator with 5% CO2 at 37° C. for 16-24 hours. […]

[1] = test system: MK-801 induced hyperactivity behavior; assay: MK-801 induced hyperactivity behavior in mice; format: in vivo, ICR mice; settings: for ED50: Mus musculus, read-out: ED50 (half effective dose)
Method: The efficacy of the compounds of the present disclosure was evaluated by high activity model of mice induced by intraperitoneal injection of MK-801.
(§6) Experimental animals: ICR mice, male, 8 mice/group, Spelford (Beijing) Biotechnology Co., Ltd.
Preparation of drug: the test compounds were taken, and pure water was added, and ultrasonication was performed.
Administration route and method: gavage administration, 10 mL/kg (body weight).
(§7) Administration frequency and duration: single dose.
Animals were stratified by body weight and then randomly divided into blank group, model group, and administration group, and detailed information of administration is shown in the following table.
Mice were stratified according to body weight and then randomly divided into model group, blank group and each administration group. One hour after the gavage administration of solvent or drug, 0.3 mg/kg MK-801 was injected intraperitoneally (the blank group was injected with the same volume of physiological saline), and then the mice were put into an independent activity box (a black polyethylene box with the specification of 29 cm×29 cm×30 cm) for video recording for 60 minutes, and video analysis was performed at the end of the recording to evaluate the activity of the mice.
(§8) The experimental data were expressed as x±SD, and SPSS statistical software was used to test the homogeneity of variance. If the variance was homogeneous, single factor analysis of variance was performed, and Dunnett t test is used for pairwise comparison. The ED50 was calculated by nonlinear fitting with GraphPad Primis5 software.

[2] = test system: DOI-induced head-shaking behavior; assay: DOI-induced head-shaking behavior in mice; format: in vivo, ICR mice; settings: Mus musculus, read-out: ED50 (half effective dose)
Method: The efficacy of the compounds of the present disclosure was evaluated by the mice model of head-shaking behavior induced by intraperitoneal injection of (±) DOI (a hallucinogenic agent usually used to replicate anti-schizophrenic animal model).
as §6
Preparation of drug: the test compounds were taken, and solvent was added, and ultrasonication was performed.
Administration route and method: oral gavage administration, 10 mL/kg (body weight).
as §7
Animals were stratified by body weight and then randomly divided into blank group, model group, and administration groups, and detailed information of administration is shown in the following table.
Mice were stratified according to body weight and then randomly divided into model group, blank group and each administration group. One hour after the animals were gavage administration of the solvent or drugs, they were placed in a beaker (13 cm in diameter, 19 cm in height) with fresh padding, and the model drug DOI was injected intraperitoneally at a dose of 1 mg/kg. The times of head-shaking were recorded within 0-20 minutes after DOI was injected intraperitoneally.
Head-shaking behavior is defined as rapid rotational twitch of mouse's head or wet dog-like shaking, which should be different from normal hair grooming or inquiry behavior.
as §8

[3] = cultured CHO-K1/5-HT2A cells, calcium influx (FLIPR), antagonist mode vs agonist EC80, read-out: 5-HT2A IC50
[4] = male ICR mice, single gavage dose 1 h before MK-801 0.3 mg/kg i.p., activity recorded 60 min

T1 sequence (P14416 1-414 isoform P14416-2): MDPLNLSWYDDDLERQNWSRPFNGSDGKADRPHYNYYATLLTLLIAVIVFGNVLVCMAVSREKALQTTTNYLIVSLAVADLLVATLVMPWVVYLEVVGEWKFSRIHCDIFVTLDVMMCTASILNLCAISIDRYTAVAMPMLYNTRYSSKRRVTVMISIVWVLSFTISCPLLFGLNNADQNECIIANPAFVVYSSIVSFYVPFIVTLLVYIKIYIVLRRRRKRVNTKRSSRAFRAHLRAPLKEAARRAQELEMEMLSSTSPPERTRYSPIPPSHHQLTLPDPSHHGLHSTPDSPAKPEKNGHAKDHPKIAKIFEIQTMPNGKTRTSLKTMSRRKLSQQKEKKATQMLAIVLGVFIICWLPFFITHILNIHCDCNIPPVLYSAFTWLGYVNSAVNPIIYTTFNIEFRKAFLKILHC
T2 sequence (P14416 whole entry): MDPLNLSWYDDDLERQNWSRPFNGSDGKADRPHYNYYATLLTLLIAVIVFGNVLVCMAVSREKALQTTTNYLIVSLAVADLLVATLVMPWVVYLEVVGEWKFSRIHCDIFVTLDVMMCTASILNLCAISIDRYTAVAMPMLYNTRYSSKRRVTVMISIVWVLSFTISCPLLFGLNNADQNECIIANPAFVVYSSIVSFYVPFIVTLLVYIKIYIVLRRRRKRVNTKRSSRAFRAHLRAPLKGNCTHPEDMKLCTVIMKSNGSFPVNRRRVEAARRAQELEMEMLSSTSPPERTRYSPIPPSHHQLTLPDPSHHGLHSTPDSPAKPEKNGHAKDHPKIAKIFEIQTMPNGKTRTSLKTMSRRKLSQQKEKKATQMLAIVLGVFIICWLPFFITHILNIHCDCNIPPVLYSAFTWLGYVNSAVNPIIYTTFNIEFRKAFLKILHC
T3 sequence (P28223 whole entry): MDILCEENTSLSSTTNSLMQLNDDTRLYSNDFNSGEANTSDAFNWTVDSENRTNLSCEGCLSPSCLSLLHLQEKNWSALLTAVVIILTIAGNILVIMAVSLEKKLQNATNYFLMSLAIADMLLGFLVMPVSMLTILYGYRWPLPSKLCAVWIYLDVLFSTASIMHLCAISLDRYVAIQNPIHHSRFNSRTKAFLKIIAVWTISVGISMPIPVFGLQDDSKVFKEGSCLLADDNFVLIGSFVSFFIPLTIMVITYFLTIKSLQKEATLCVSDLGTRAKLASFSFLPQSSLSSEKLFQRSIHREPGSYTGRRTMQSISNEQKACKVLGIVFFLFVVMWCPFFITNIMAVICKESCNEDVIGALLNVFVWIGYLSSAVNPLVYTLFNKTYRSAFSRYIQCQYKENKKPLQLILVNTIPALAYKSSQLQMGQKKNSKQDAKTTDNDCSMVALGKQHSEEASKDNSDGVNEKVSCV

SMILES | IC50 (D2S receptor) | IC50 (D2L receptor) | IC50 (5-HT2A receptor; [3]) | ED50 [1, 4] | MED (lowest effective dose) [1, 4] | ED50 [2] | IC50 (5-HT2A receptor) | ED50 [1]
CN1C(=O)CN2c3c(cccc31)C1CN(CCCC(=O)c3ccc(F)cc3)CCC12 (centres unmarked) [Comparative embodiment 1, 8-(4-(4-fluorophenyl)-4-oxobutyl)-3-methyl-6b,7,8,9,10,10a-hexahydro-1H-pyrido [3′,4′:4,5]pyrrolo[1,2,3-de]quinoxalin-2(3H)-one, reference compound] | 364 nM | 200 nM | 44.4 nM | 1.28 mg/kg | 1 mg/kg |  |  | 
CN1C(=O)CN2c3c(cccc31)[C@@H]1CN(CCCC(=O)c3ccc(F)cc3)CC[C@@H]12 [Comparative embodiment 1-A, reference compound] | 264 nM | 88.8 nM | 9.11 nM |  |  |  |  | 
CN1CCN2c3c(cccc31)C1CN(CCCC(=O)c3ccc(F)cc3)CCC12 (centres unmarked) [Comparative embodiment 2, 1-(4-fluorophenyl)-4-(3-methyl-2,3,6b,9,10,10a-hexahydro-1H-pyrido[3′,4′:4,5]pyrrolo[1,2,3-de]quinoxalin-8(7H)-yl)butan-1-one, reference compound] | 622 nM | 35.8 nM |  |  |  |  |  | 
CN1C(=O)CN2c3c1cccc3[C@@]1(C)CN(CCCC(=O)c3ccc(F)cc3)CC[C@@H]21 [Embodiment 1-B, (6bS,10aR)-8-(4-(4-fluorophenyl)-4-oxobutyl)-3,6b-dimethyl-6b,7,8,9,10,10a-hexahydro-1H-pyrido[3′,4′:4,5]pyrrolo [1,2,3-de]quinoxalin-2(3H)-one] | 63.1 nM | 15.5 nM | 108 nM |  |  |  |  | 
CCN1C(=O)CN2c3c1cccc3C1(C)CN(CCCC(=O)c3ccc(F)cc3)CCC21 (centres unmarked) [Embodiment 3, 3-ethyl-8-(4-(4-fluorophenyl)-4-oxobutyl)-6b-methyl-6b,7,8,9,10,10a-hexahydro-1H-pyrido[3′,4′:4,5]pyrrolo[1,2,3-de]quinoxalin-2(3H)-one] | 207 nM | 51.4 nM |  |  |  | 0.21 mg/kg |  | 
CN1C(=O)C(C)(C)N2c3c1cccc3C1(C)CN(CCCC(=O)c3ccc(F)cc3)CCC21 (centres unmarked) [Embodiment 4, 8-(4-(4-fluorophenyl)-4-oxobutyl)-1,1,3,6b-tetramethyl-6b,7,8,9,10,10a-hexahydro-1H-pyrido [3′,4′:4,5]pyrrolo[1,2,3-de]quinoxalin-2(3H)-one] |  |  |  |  |  | 0.42 mg/kg | 19.7 nM | 
Cn1c(=O)c(=O)n2c3c(cccc31)C1(C)CN(CCCC(=O)c3ccc(F)cc3)CCC21 (centres unmarked) [Embodiment 5, 8-(4-(4-fluorophenyl)-4-oxobutyl)-3,6b-dimethyl-6b,7,8,9,10,10a-hexahydro-1H-pyrido[3′,4′:4,5]pyrrolo[1,2,3-de]quinoxaline-1,2(3H)-dione] | 93.4 nM | 13.1 nM |  |  |  |  |  | 
CN1CCN2c3c1cccc3C1(C)CN(CCCC(=O)c3ccc(F)cc3)CCC21 (centres unmarked) [Embodiment 7, 4-(3,6b-dimethyl-2,3,6b,9,10,10a-hexahydro-1H-pyrido[3′,4′:4,5]pyrrolo[1,2,3-de]quinoxalin-8(7H)-yl)-1-(4-fluorophenyl)butan-1-one] |  |  |  |  | 0.1 mg/kg |  | 3.5 nM | 0.09 mg/kg
